Assay results reported in PubChem BioAssay (NCI).
Where “and” joins values, the source holds several entries; their conditions need not be identical. Identical values can stand only once.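 Growth conditions: 96-well plates. Treatment: test compound, 48 hours, 5 concentrations. Analysis: linear interpolation between bracketing concentrations; unreached endpoints set to highest concentration. GI50: concentration for 50% inhibition of growth. TGI: concentration producing complete growth inhibition.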

Experiments:
Experiment in all cases: growth of human tumour cells (NCI), 48 h
COLO 205 colon = system: COLO 205 colon
SK-MEL-5 melanoma = system: SK-MEL-5 melanoma
OVCAR-4 ovarian = system: OVCAR-4 ovarian
OVCAR-5 ovarian = system: OVCAR-5 ovarian
HL-60(TB) leukemia = system: HL-60(TB) leukemia
NCI-H460 lung = system: NCI-H460 lung
PC-3 prostate = system: PC-3 prostate
HCT-116 colon = system: HCT-116 colon
SNB-75 CNS = system: SNB-75 CNS
LOX IMVI melanoma = system: LOX IMVI melanoma

Row | SMILES | GI50 (COLO 205 colon) | TGI (COLO 205 colon) | GI50 (SK-MEL-5 melanoma) | TGI (SK-MEL-5 melanoma) | GI50 (OVCAR-4 ovarian) | TGI (OVCAR-4 ovarian) | GI50 (OVCAR-5 ovarian) | TGI (OVCAR-5 ovarian) | GI50 (HL-60(TB) leukemia) | TGI (HL-60(TB) leukemia) | GI50 (NCI-H460 lung) | TGI (NCI-H460 lung) | GI50 (PC-3 prostate) | TGI (PC-3 prostate) | GI50 (HCT-116 colon) | TGI (HCT-116 colon) | TGI (SNB-75 CNS) | TGI (LOX IMVI melanoma) | GI50 (LOX IMVI melanoma) | GI50 (SNB-75 CNS)
1 | c1ccc2c3c(ccc2c1)-c1c(ccc2c(NCCCCN4CCCCC4)cccc12)C3 | 2.33 µM | 6.77 µM | 11 µM | 26.7 µM | 2.81 µM | > 31 µM | 1.31 µM | 2.88 µM | 2.48 µM | 14.6 µM | 2.08 µM | 6.74 µM | 1.61 µM | 3.23 µM | 1.63 µM | 2.98 µM |  |  |  | 
2 | Cc1ccccc1NC(=O)c1ccc([N+](=O)[O-])cc1 |  | > 100 µM |  | > 100 µM |  | > 100 µM |  | > 100 µM |  | > 100 µM |  | > 100 µM |  |  |  | > 100 µM | > 100 µM | > 100 µM |  | 
3 | CCCCCCCCCCCCC(CCCCCCCCCCCC)OP(=O)(O)O |  | > 100 µM |  | > 100 µM |  | > 100 µM |  | > 100 µM |  | > 100 µM |  | > 100 µM |  |  |  | > 100 µM | > 100 µM | > 100 µM |  | 
4 | Cn1c(=O)c2[nH]c(CCCCc3nc4c([nH]3)c(=O)n(C)c(=S)n4C)nc2n(C)c1=S |  | > 100 µM |  | > 100 µM |  | > 100 µM |  | > 100 µM |  |  |  | > 100 µM |  | > 100 µM |  | > 100 µM | 53.1 µM | > 100 µM |  | 
5 | CC1=Nc2ccccc2C12C(c1ccccc1)C(c1ccccc1)C(=O)N1c3ccccc3CC12 (stereo unspecified) |  | > 100 µM |  | > 100 µM |  | > 100 µM |  | > 100 µM |  | > 100 µM |  | > 100 µM |  |  |  | > 100 µM | > 100 µM | > 100 µM |  | 
6 | C/C=C/C1=CN2C(=O)c3cc(OC4OC(C)C(NC)C(C)(O)C4O)c(C)c(O)c3N=C[C@@H]2C1 (stereo partly specified) |  |  |  |  |  | 20.7 µM |  | 2.92 µM | 0.0603 µM | 0.34 µM | 0.0376 µM and < 0.01 µM |  |  | 16.5 µM |  | 11.9 µM |  | 4.06 µM | 0.0619 µM and < 0.01 µM | 
7 | O=[N+]([O-])c1cc2c(c([N+](=O)[O-])c1)Nc1ccccc1O2 | 10.5 µM | 27.8 µM | 3.81 µM | 21.6 µM | 5.99 µM | 68.3 µM | 14.9 µM | 62.2 µM |  |  | 4.62 µM | 83.1 µM | 4.12 µM | 34 µM | 4.49 µM | 63 µM | > 100 µM | > 100 µM | 4.67 µM | 29.8 µM
8 | CSC1(CC(=O)N2CCCCC2)C(=O)Nc2ccccc21 (stereo unspecified) |  | > 100 µM |  | > 100 µM |  | > 100 µM |  | > 100 µM |  |  |  | > 100 µM |  | > 100 µM |  | > 100 µM | > 100 µM | > 100 µM |  | 
9 | FC(F)(F)c1nc(-c2ccccc2)oc1Sc1oc(-c2ccccc2)nc1C(F)(F)F |  | > 100 µM |  | > 100 µM |  | 90.2 µM |  | > 100 µM |  | > 100 µM |  | > 100 µM |  |  |  | > 100 µM | > 100 µM | > 100 µM |  | 
10 | Cn1sc2ccccc2c1=S |  | 26.2 µM |  | 25.3 µM |  | 19.4 µM |  | 37.4 µM |  | 27.2 µM |  | 32.3 µM |  |  |  | 13.3 µM | 17.4 µM | 4.5 µM |  | 
11 | Nc1nc(=Nc2ccccc2)ss1 |  | > 100 µM |  | > 100 µM |  | > 100 µM |  | > 100 µM |  | 60.2 µM |  | > 100 µM |  |  |  | > 100 µM | > 100 µM | > 100 µM |  | 
12 | COc1cc(/C=C2\C[C@H]3[C@@H]4CC=C5C[C@@H](OC(C)=O)CC[C@]5(C)[C@H]4CC[C@]3(C)[C@H]2OC(C)=O)ccc1OCCN1CCCCC1 | 16.3 µM | > 50 µM | 8.16 µM | 15.5 µM |  |  | 23.4 µM | > 50 µM | 40.7 µM | > 50 µM | 15.8 µM | > 50 µM | 24.7 µM | > 50 µM |  |  |  | 18.5 µM | 9.63 µM | 
13 | COC(C)(C)[C@H](O)C(O)CC(C)[C@@H]1CCC23CC12CCC1[C@@]2(C)CCC(OC(C)=O)C(C)(C)C2CC(OC2OC(COC(C)=O)C(O)C(O)C2O)[C@]13C (stereo partly specified) | 2.17 µM | 11.3 µM and 4.58 µM | 10.2 µM | 12.8 µM and 23.3 µM | 7.01 µM | 13.1 µM and 21.3 µM | 3.92 µM | 8.54 µM and 14.3 µM | 2.55 µM | 3.09 µM and 6.18 µM | 4.69 µM | 10.3 µM and 14.7 µM |  |  | 4.78 µM | 8.67 µM and 13.4 µM | 11.3 µM and 17.1 µM | 9.97 µM and 15.9 µM | 4.04 µM | 4.32 µM
14 | O=c1ccnc(SCc2ccc(Cl)cc2)[nH]1 |  | > 100 µM |  | > 100 µM |  | > 100 µM |  | > 100 µM |  |  |  | > 100 µM |  | > 100 µM |  | > 100 µM | > 100 µM | > 100 µM |  | 
15 | Cc1ccc(NC(=O)c2cc3ccccc3cc2O)c(C)c1.Cc1ccc(NC(=O)c2cc3ccccc3cc2[O-])c(C)c1.[Ni+2] | 6.65 µM | 24.6 µM | 2.57 µM | 10.2 µM | 3.88 µM | 25.4 µM | 4.25 µM | 17.9 µM |  |  | 2.77 µM | 14.3 µM |  | 5.38 µM | 2.79 µM | 11.4 µM | 6.7 µM |  |  | 2.78 µM
